Source: US6444684B1 (priority 1993, dated 2002)

Legend:
[1] = target: HIV-RT (Human immunodeficiency virus type 1 group M subtype B, UniProt P03366); test: HIV-RT inhibition by AZT-TP, lavendamycin analogs and their combinations; type: biochemical; design: unit of the concentration uncertain; details: LA Conc. 0 (unit uncertain); for % inh. ave.: average of three trials
From the text: AZT-TP was used for these in vitro studies since AZT is naturally phosphorylated in vivo.
The results of these tests are given in Table XVIII and XIX below, where the percent inhibition of HIV-RT activity is reported for three different trials and then averaged in the seventh column. […] .

[2] = system: K/1-NRKE tumor (ras^K-transformed NRKE cells); details: mouse, in vivo
[3] = system: Non-Small Cell Lung Cancer cell lines; test: NCI in vitro anticancer screen (SRB), non-small cell lung cancer subpanel; details: 48 hours exposure; average percent growth over the cell lines
Description: (§1) Compounds chosen for the program are initially tested in an in vitro anticancer screen. A total of fifty-five human tumor cell lines, derived from nine cancer types (lung, colon, melanoma, renal, ovarian, brain, prostate, breast and leukemia), are used in this screen. The tumor cells are inoculated over a series of standard 96-well microtiter plates on day 0. These cells are then preincubated on the microtiter plates for 24 hours. The test compounds are added to the wells in five 10-fold dilutions starting from the highest soluble concentration. Each compound is tested against every cell line in the panel. The compounds are incubated for 48 hours with the tumor cell lines. At the termination of the assay, the cells are fixed in situ, washed, and dried. Sulforhodamine B (SRB), a pink anionic dye that binds to the basic amino acids of trichloroacetic acid-fixed cells, is added. The cells are washed again, and the remaining dye is a function of the adherent cell mass. The bound stain is solubilized and measured spectrophotometrically. The data are entered from automatic reading devices into a computer for subsequent storage and analysis.
(§2) The measured effect of each test compound on the cell lines is calculated according to one or the other of the following two expressions:
(§3) If (Mean ODtest−Mean ODtzero)□0, then PG=100×(Mean ODtest−Mean ODtzero)/(Mean ODctrl−Mean ODtzero);
(§4) If (Mean ODtest−Mean ODtzero)<0, then PG=100×(Mean ODtest−Mean ODtzero)/Meantzero;
(§5) First, a data sheet is provided which lists, for each cell line, the Mean ODtzero, the Mean ODctrl, the Mean ODtest for each of the five concentrations, the calculated PGs for each concentration, and the response parameters G150, TGI, and LC50.
(§6) Third, mean graphs at each of the principal response parameters (GI50, TGI, and LC50) are provided. […] Since the bar scale is logarithmic, a bar two units to the right implies the compound achieved the response parameter (e.g., GI50) for the cell line at a concentration 1/100 the mean concentration required over all cell lines, and thus the cell line is unusually sensitive to that compound. Bars extending to the left correspondingly imply sensitivity less than the mean. Thus, the mean graphs facilitate visual scanning of data for potential patterns of selectivity for particular cell lines or for particular subpanels with respect to a selected response parameter.

[4] = system: Melanoma cell lines; test: NCI in vitro anticancer screen (SRB), melanoma subpanel; details: 48 hours exposure; average percent growth over the cell lines
Description: as §1, §2, §3, §4, §5, §6

[5] = system: H/1.2 = ras^H Transformed NRKE Cells; details: H/1.2 = ras^H transformed NRKE cells, compared with normal NRKE cells
[6] = system: K/1 = ras^K Transformed NRKE Cells; details: for Differential Index K/1: K/1 = ras^K transformed NRKE cells, compared with normal NRKE cells
[7] = system: Colon Cancer cell lines; test: NCI in vitro anticancer screen (SRB), colon cancer subpanel; details: 48 hours exposure; average percent growth over the cell lines
Description: as §1, §2, §3, §4

[8] = system: N/4.2-NRKE transformed by the human ras^N gene; details: N/4.2 = ras^N transformed NRK cells, compared with normal NRKE cells
[9] = system: CNS Cancer cell lines; test: NCI in vitro anticancer screen (SRB), CNS cancer subpanel; details: 48 hours exposure; average percent growth over the cell lines
Description: as §1, §2, §3, §4, §5, §6

[10] = system: 3LL = Lewis Lung Carcinoma Cells; details: 3LL = Lewis lung carcinoma cells, compared with normal NRKE cells
[11] = system: Leukemia cell lines; test: NCI in vitro anticancer screen (SRB), leukemia subpanel; details: 48 hours exposure; average percent growth over the cell lines
Description: as §1, §2, §3, §4, §5, §6

[12] = system: Renal Cancer cell lines; test: NCI in vitro anticancer screen (SRB), renal cancer subpanel; details: 48 hours exposure; average percent growth over the cell lines
Description: as §1, §2, §3, §4, §5, §6

[13] = system: Breast Cancer cell lines; test: NCI in vitro anticancer screen (SRB), breast cancer subpanel; details: 48 hours exposure; average percent growth over the cell lines
Description: as §1, §2, §3, §4

[14] = system: Ovarian Cancer cell lines; test: NCI in vitro anticancer screen (SRB), ovarian cancer subpanel; details: 48 hours exposure; average percent growth over the cell lines
Description: as §1, §2, §3, §4

[15] = system: Prostate Cancer cell lines; test: NCI in vitro anticancer screen (SRB), prostate cancer subpanel; details: 48 hours exposure; average percent growth over the cell lines
Description: as §1, §2, §3, §4

[16] = AZT-TP Conc. 0.01 (unit uncertain)
[17] = AZT-TP Conc. 0.05 (unit uncertain)

| SMILES | Differential Index H/1.2 [5] | Differential Index K/1 [6] | Differential Index N/4.2 [8] | Differential Index 3LL [10] | also measured |
| --- | --- | --- | --- | --- | --- |
| Cc1cn([C@H]2C[C@H](N=[N+]=[N-])[C@@H](COP(=O)(O)OP(=O)(O)OP(=O)(O)O)O2)c(=O)[nH]c1=O [AZT-TP, 3′-azido-3′-deoxythymidine 5′-triphosphate, reference compound] |  |  |  |  | % inh. Trial 1 [1, 16]: 27%; % inh. Trial 2 [1, 16]: 27%; % inh. Trial 3 [1, 16]: 29%; % inh. ave. [1, 16]: 27.7%; % inh. Trial 1 [1, 17]: 51%; % inh. Trial 2 [1, 17]: 52%; % inh. Trial 3 [1, 17]: 49%; % inh. ave. [1, 17]: 50.7% |
| O=P1(N(CCCl)CCCl)NCCCO1 (stereo not shown) [CY, cyclophosphamide, reference compound] |  |  |  |  | Number Dead Number Treated ([2]; female, CD1 nu/nu): 0/7; Percent Wt. Change (g) [2]: −3.0 ″ 0.09 g |
| CC(=O)NC1=CC(=O)c2ccc(-c3nc(C(=O)O)cc4c3[nH]c3ccccc34)nc2C1=O [Compound 2] | 1.36 | 2.14 | 1.50 | 0.38 | Activity (Average PG for highest dose tested) Non-Small Cell Lung Cancer [3]: −27.9%; Activity (Average PG for highest dose tested) Melanoma [4]: −53.7%; Activity (Average PG for highest dose tested) Colon Cancer [7]: −43.6%; Activity (Average PG for highest dose tested) CNS Cancer [9]: −26.6%; Activity (Average PG for highest dose tested) Leukemia [11]: −34.7%; Activity (Average PG for highest dose tested) Renal Cancer [12]: −74.6%; Activity (Average PG for highest dose tested) Breast Cancer [13]: −32.6%; Activity (Average PG for highest dose tested) Ovarian Cancer [14]: −62.7%; Activity (Average PG for highest dose tested) Prostate Cancer [15]: −45.5% |
| CCCCOC(=O)c1cc2c([nH]c3ccc(OC)cc32)c(-c2ccc3c(n2)C(=O)C(NC(C)=O)=CC3=O)n1 [Compound 4] | 1.19 | 1.14 | 1.14 | <0.75 |  |
| CCCCOC(=O)c1cc2c([nH]c3ccc(F)cc32)c(-c2ccc3c(n2)C(=O)C(NC(C)=O)=CC3=O)n1 [Compound 5] | 0.88 | 1.88 | 0.74 | 0.29 |  |
| CC(=O)NC1=CC(=O)c2ccc(-c3nccc4c3[nH]c3ccccc34)nc2C1=O [Compound 6] | 1.00 | 0.91 | 0.82 | 0.13 |  |
| COC(=O)c1nc(-c2ccc3c(n2)C(=O)C(NC(=O)CCl)=CC3=O)c2[nH]c3ccccc3c2c1C [Compound 7, 7-N-CHLOROACETYLLAVENDAMYCIN METHYL ESTER] | 1.00 | 0.73 | 0.76 | 0.29 |  |
| CC(C)CCOC(=O)c1cc2c([nH]c3ccccc32)c(-c2ccc3c(n2)C(=O)C(NC(=O)CCl)=CC3=O)n1 [Compound 9, 7-N-CHLOROACETYLDEMETHYLLAVENDAMYCIN ISOAMYL ESTER] | 1.02 | 2.41 | 1.13 | 0.42 |  |
| CCCCCCCCOC(=O)c1cc2c([nH]c3ccccc32)c(-c2ccc3c(n2)C(=O)C(NC(=O)CCl)=CC3=O)n1 [Compound 10, 7-N-CHLOROACETYLDEMETHYLLAVENDAMYCIN OCTYL ESTER] | i1.0 | >2.2 | i1.0 | i1.0 |  |
| CCCC(=O)NC1=CC(=O)c2ccc(-c3nc(C(=O)OC)c(C)c4c3[nH]c3ccccc34)nc2C1=O [Compound 11, 7-N-BUTYRYLLAVENDAMYCIN METHYL ESTER] | 0.80 | 0.97 | 0.76 | 0.39 |  |
| CCCCOC(=O)c1cc2c([nH]c3ccccc32)c(-c2ccc3c(n2)C(=O)C(NC(=O)CCC)=CC3=O)n1 [Compound 12] | 1.61 | 1.32 | 0.94 | 0.29 |  |
| CCCC(=O)NC1=CC(=O)c2ccc(-c3nc(C(=O)OCCC(C)C)cc4c3[nH]c3ccccc34)nc2C1=O [Compound 13, 7-N-BUTYRYLDEMETHYLLAVENDAMYCIN ISOAMYL ESTER] | 2.70 | 1.67 | 1.53 | 0.42 |  |
| CCCCCCCCOC(=O)c1cc2c([nH]c3ccccc32)c(-c2ccc3c(n2)C(=O)C(NC(=O)CCC)=CC3=O)n1 [Compound 14, 7-N-BUTYRYLDEMETHYLLAVENDAMYCIN OCTYL ESTER] | >2.06 | >10.0 | >2.2 | >2.06 |  |
| CCCCOC(=O)c1cc2c([nH]c3ccccc32)c(-c2ccc3c(n2)C(=O)C(NC(=O)C(C)C)=CC3=O)n1 [Compound 15] | 1.48 | 2.25 | 1.80 | 1.00 |  |
| CC(=O)NC1=CC(=O)c2ccc(-c3nc(C(=O)OCCC(C)C)cc4c3[nH]c3ccccc34)nc2C1=O [Compound 20] |  |  |  |  | Activity (Average PG for highest dose tested) Non-Small Cell Lung Cancer [3]: −19.1%; Activity (Average PG for highest dose tested) Melanoma [4]: −75.2%; selective toxicity against ras^K oncogene bearing tumor cells as compared to the normal, non-transformed cells ([6]; LC50 NRKE divided by LC50 K/1): 18 fold; Activity (Average PG for highest dose tested) Colon Cancer [7]: −53.0%; Activity (Average PG for highest dose tested) CNS Cancer [9]: −49.5%; Activity (Average PG for highest dose tested) Leukemia [11]: −4.0%; tumor growth inhibition in vivo (in words) [2]: excellent tumor growth inhibition; Activity (Average PG for highest dose tested) Renal Cancer [12]: −56.1%; Activity (Average PG for highest dose tested) Breast Cancer [13]: −38.6%; Activity (Average PG for highest dose tested) Ovarian Cancer [14]: −42.2%; Activity (Average PG for highest dose tested) Prostate Cancer [15]: −70.5% |
| CC(C)C(=O)NC1=CC(=O)c2ccc(C=O)nc2C1=O [Compound 25] | ˜1.0 | >1.5 | ˜1.0 | >3.3 |  |
| Cc1ccc2c(n1)C(=O)C(NC(=O)C(C)C)=CC2=O [Compound 29] | 1.03 | 0.2 | 1.3 | 2.1 |  |
| CCCCCCCCOC(=O)c1cc2c([nH]c3ccccc32)c(-c2ccc3c(n2)C(=O)C(NC=O)=CC3=O)n1 [Compound 56, 7-N-formyldemethyllavendamycin octyl ester] | i1.00 | >1.57 | >1.5 | >1.03 | Activity (Average PG for highest dose tested) Non-Small Cell Lung Cancer [3]: −28.8%; Activity (Average PG for highest dose tested) Melanoma [4]: −39.9%; Activity (Average PG for highest dose tested) Colon Cancer [7]: −30.0%; Activity (Average PG for highest dose tested) CNS Cancer [9]: −36.8%; Activity (Average PG for highest dose tested) Leukemia [11]: −29.7%; Activity (Average PG for highest dose tested) Renal Cancer [12]: −51.3%; Activity (Average PG for highest dose tested) Breast Cancer [13]: −42.3%; Activity (Average PG for highest dose tested) Ovarian Cancer [14]: −57.3%; Activity (Average PG for highest dose tested) Prostate Cancer [15]: +14.0% |
| CCCCCCCCOC(=O)c1cc2c([nH]c3ccccc32)c(-c2ccc3c(n2)C(=O)C(N)=CC3=O)n1 [Compound 57, demethyllavendamycin octyl ester] |  |  |  |  | Activity (Average PG for highest dose tested) Non-Small Cell Lung Cancer [3]: +89.8%; Activity (Average PG for highest dose tested) Melanoma [4]: +89.4%; Activity (Average PG for highest dose tested) Colon Cancer [7]: +100.3%; Activity (Average PG for highest dose tested) CNS Cancer [9]: +81.0%; Activity (Average PG for highest dose tested) Leukemia [11]: +90.8%; Activity (Average PG for highest dose tested) Renal Cancer [12]: +68.7%; Activity (Average PG for highest dose tested) Breast Cancer [13]: +96.0%; Activity (Average PG for highest dose tested) Ovarian Cancer [14]: +89.3%; Activity (Average PG for highest dose tested) Prostate Cancer [15]: +94.5% |
| Cc1ccc2c(n1)C(=O)C(N)=C(Cl)C2=O [Compound 59, 7-Amino-6-Chloro-2-Methylquinoline-5,8-Dione] | 1.25 | 1.25 | 1.14 | 0.63 |  |
